Measurements published in ChEMBL document CHEMBL1124423, “Synthesis of highly mu and delta opioid receptor selective peptides containing a photoaffinity group” (J Med Chem, 1989).

What was measured:
Cavia porcellus [1] = species on record: Cavia porcellus; assay: Concentration that reduced the response by 50% by delta receptor selective analogue was assessed in Guinea pig ileum assay; format: functional
Mus musculus [2] = species on record: Mus musculus; assay: Concentration that reduced the response by 50% by delta selective analogue was assessed in mouse vas deferens assay; format: functional
Cavia porcellus [3] = species on record: Cavia porcellus; assay: Inhibition of response by delta receptor selective analogue at 300 nM was assessed in Guinea pig ileum assay; format: functional
[4] = molecular target: Opioid receptors; mu & delta (Homo sapiens) (UniProt P41143+P35372); assay: Selectivity ratio for binding to mu vs delta opioid receptor; format: protein assay
Sequence of Opioid receptors; mu & delta (Homo sapiens) (P35372 whole entry, looked up): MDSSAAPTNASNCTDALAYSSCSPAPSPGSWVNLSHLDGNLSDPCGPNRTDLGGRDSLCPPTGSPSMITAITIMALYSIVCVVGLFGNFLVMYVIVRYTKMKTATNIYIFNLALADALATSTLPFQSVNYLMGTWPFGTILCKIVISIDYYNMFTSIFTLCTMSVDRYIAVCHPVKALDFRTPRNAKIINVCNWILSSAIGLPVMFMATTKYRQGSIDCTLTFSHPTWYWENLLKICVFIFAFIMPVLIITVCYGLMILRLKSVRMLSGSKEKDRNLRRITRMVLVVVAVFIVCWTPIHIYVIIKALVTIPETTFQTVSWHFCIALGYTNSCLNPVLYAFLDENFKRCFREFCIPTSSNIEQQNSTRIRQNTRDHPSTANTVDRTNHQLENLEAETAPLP
Sequence of Opioid receptors; mu & delta (Homo sapiens) (P41143 whole entry, looked up): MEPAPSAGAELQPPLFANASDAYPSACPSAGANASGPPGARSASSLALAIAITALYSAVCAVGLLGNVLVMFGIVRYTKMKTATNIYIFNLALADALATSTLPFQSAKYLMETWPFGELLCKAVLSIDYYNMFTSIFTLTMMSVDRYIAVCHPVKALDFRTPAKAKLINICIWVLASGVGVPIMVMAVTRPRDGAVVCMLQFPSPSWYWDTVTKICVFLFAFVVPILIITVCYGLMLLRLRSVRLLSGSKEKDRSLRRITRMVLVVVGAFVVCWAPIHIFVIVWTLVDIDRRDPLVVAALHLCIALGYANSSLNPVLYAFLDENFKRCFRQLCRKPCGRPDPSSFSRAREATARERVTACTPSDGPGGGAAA

Cavia porcellus [5] = species on record: Cavia porcellus; assay: Inhibition of response by delta receptor selective analogue at 3000 nM was assessed in Guinea pig ileum assay; format: functional
Cavia porcellus [6] = species on record: Cavia porcellus; assay: Inhibition of response by delta receptor selective analogue at 10000 nM was assessed in Guinea pig ileum assay; format: functional
Mus musculus [7] = species on record: Mus musculus; assay: Concentration that reduced the response by 50% by delta receptor selective analogue was assessed in mouse vas deferens assay; NA is no activity at 10e-5 M; format: functional
Cavia porcellus [8] = species on record: Cavia porcellus; assay: Affinity of mu receptor selective analogue in Guinea pig ileum assay expressed as pA2; format: functional; settings: read-out: pA2 (converted)
Mu-type opioid receptor = Mu-type opioid receptor (Rattus norvegicus, UniProt P33535); assay: Binding potency of compound in competition with [3H]CTOP for Opioid receptor mu 1 tested in rat brain membrane; format: cell membranes
Sequence of Mu-type opioid receptor (P33535 whole entry): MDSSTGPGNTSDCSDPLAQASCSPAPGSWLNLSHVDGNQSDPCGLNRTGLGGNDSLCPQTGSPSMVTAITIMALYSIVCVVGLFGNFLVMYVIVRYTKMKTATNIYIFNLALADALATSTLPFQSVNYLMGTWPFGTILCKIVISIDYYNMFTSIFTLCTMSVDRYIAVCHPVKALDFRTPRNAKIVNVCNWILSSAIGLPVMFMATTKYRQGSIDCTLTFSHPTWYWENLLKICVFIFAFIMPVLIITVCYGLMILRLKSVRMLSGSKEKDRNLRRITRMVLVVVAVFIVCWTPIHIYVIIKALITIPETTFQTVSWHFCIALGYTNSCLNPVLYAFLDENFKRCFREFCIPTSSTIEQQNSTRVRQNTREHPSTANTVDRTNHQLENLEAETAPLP

[9] = molecular target: Delta-type opioid receptor (Rattus norvegicus, UniProt P33533); assay: Binding potency of compound in competition with [3H]DPDPE for Opioid receptor delta 1 tested in rat brain membrane; format: cell membranes
Sequence of Delta-type opioid receptor (P33533 whole entry): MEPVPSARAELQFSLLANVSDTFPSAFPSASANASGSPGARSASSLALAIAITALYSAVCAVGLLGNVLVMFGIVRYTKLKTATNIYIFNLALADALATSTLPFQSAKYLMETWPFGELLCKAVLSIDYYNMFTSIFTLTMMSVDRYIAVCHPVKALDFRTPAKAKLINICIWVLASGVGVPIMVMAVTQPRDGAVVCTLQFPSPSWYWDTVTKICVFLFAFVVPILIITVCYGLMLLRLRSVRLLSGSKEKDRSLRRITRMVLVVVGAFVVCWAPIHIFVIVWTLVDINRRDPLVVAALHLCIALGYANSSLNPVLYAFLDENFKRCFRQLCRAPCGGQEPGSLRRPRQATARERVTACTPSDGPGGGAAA

Mus musculus [10] = species on record: Mus musculus; assay: Concentration that reduced the response by 50% by delta selective analogue was assessed in mouse vas deferens assay; NA is no activity at 10e-5 M; format: functional

For `CC1(C)SSC(C)(C)[C@@H](NC(=O)[C@@H](N)Cc2ccc(O)cc2)C(=O)NCC(=O)N[C@@H](Cc2ccc(N)cc2)C(=O)N[C@H]1C(=O)O`, the IC50 (Cavia porcellus [1]) was > 10000 nM and the IC50 (Mus musculus [2]) was 138 nM.
In the case of `C[C@@H](O)[C@H](NC(=O)[C@H]1NC(=O)[C@H]([C@@H](C)O)NC(=O)[C@H](CCCCN)NC(=O)[C@@H](Cc2c[nH]c3ccccc23)NC(=O)[C@H](Cc2ccc(N=[N+]=[N-])cc2)NC(=O)[C@@H](NC(=O)[C@H](N)Cc2ccccc2)CSSC1(C)C)C(N)=O` [listing 1 of 2 here], the inhibition at 0.3 µM (Cavia porcellus [3]) is reported as 8%.
`C[C@@H](O)[C@H](NC(=O)[C@@H]1NC(=O)[C@H]([C@@H](C)O)NC(=O)[C@@H](CCCCN)NC(=O)[C@@H](Cc2c[nH]c3ccccc23)NC(=O)[C@@H](Cc2ccc(N=[N+]=[N-])cc2)NC(=O)[C@H](NC(=O)[C@@H](N)Cc2ccccc2)CSSC1(C)C)C(N)=O` was tested, and the Ratio [4] was 412.
`C[C@@H](O)[C@H](NC(=O)[C@H]1NC(=O)[C@H]([C@@H](C)O)NC(=O)[C@H](CCCCN)NC(=O)[C@@H](Cc2c[nH]c3ccccc23)NC(=O)[C@H](Cc2ccc(N)cc2)NC(=O)[C@@H](NC(=O)[C@H](N)Cc2ccccc2)CSSC1(C)C)C(N)=O` [listing 1 of 2 here] was tested, and the inhibition at 3 µM (Cavia porcellus [5]) was 5%.
`CC1(C)SSC(C)(C)[C@@H](NC(=O)[C@@H](N)Cc2ccc(O)cc2)C(=O)NCC(=O)N[C@@H](Cc2ccc(N=[N+]=[N-])cc2)C(=O)N[C@H]1C(=O)O` [listing 1 of 2 here] gave an inhibition at 10 µM (Cavia porcellus [6]) of 6%.
In the case of `C[C@@H](O)[C@H](NC(=O)[C@H]1NC(=O)[C@H]([C@@H](C)O)NC(=O)[C@H](CCCCN)NC(=O)[C@@H](Cc2c[nH]c3ccccc23)NC(=O)[C@H](Cc2ccc(O)cc2)NC(=O)[C@@H](NC(=O)[C@H](N)Cc2ccccc2)CSSC1(C)C)C(=O)O`, the IC50 (Mus musculus [7]) is reported as “Not Active”, the Kb (Cavia porcellus [8]) is reported as 79.4 nM and the IC50 (Mu-type opioid receptor) is reported as 3 nM. For the same compound, the IC50 [9] was 8400 nM.
`CC1(C)SSC(C)(C)[C@@H](NC(=O)[C@@H](N)Cc2ccc(O)cc2)C(=O)NCC(=O)N[C@@H](Cc2ccccc2)C(=O)N[C@H]1C(=O)O` gave an IC50 (Mus musculus [2]) of 4.3 nM.
`C[C@@H](O)[C@H](NC(=O)[C@@H]1NC(=O)[C@H]([C@@H](C)O)NC(=O)[C@@H](CCCCN)NC(=O)[C@@H](Cc2c[nH]c3ccccc23)NC(=O)[C@@H](Cc2ccc(N)cc2)NC(=O)[C@H](NC(=O)[C@@H](N)Cc2ccccc2)CSSC1(C)C)C(N)=O` was tested, and the Ratio [4] was > 20.
For `C[C@@H](O)[C@H](NC(=O)[C@@H]1NC(=O)[C@H]([C@@H](C)O)NC(=O)[C@@H](CCCCN)NC(=O)[C@@H](Cc2c[nH]c3ccccc23)NC(=O)[C@@H](Cc2ccc(O)cc2)NC(=O)[C@H](NC(=O)[C@@H](N)Cc2ccccc2)CSSC1(C)C)C(=O)O`, the Ratio [4] was 3230.
For `C[C@@H](O)[C@H](NC(=O)[C@H]1NC(=O)[C@H]([C@@H](C)O)NC(=O)[C@H](CCCCN)NC(=O)[C@@H](Cc2c[nH]c3ccccc23)NC(=O)[C@H](Cc2ccc(N)cc2)NC(=O)[C@@H](NC(=O)[C@H](N)Cc2ccccc2)CSSC1(C)C)C(N)=O` [listing 2 of 2 here], the IC50 (Mus musculus [10]) was “Not Active”, the IC50 (Mu-type opioid receptor) was 500 nM and the IC50 [9] was > 10000 nM.
`CC1(C)SSC(C)(C)[C@@H](NC(=O)[C@@H](N)Cc2ccc(O)cc2)C(=O)NCC(=O)N[C@@H](Cc2ccc(N=[N+]=[N-])cc2)C(=O)N[C@H]1C(=O)O` [listing 2 of 2 here] showed an IC50 (Mus musculus [2]) of 9.5 nM.
`C[C@@H](O)[C@H](NC(=O)[C@H]1NC(=O)[C@H]([C@@H](C)O)NC(=O)[C@H](CCCCN)NC(=O)[C@@H](Cc2c[nH]c3ccccc23)NC(=O)[C@H](Cc2ccc(N=[N+]=[N-])cc2)NC(=O)[C@@H](NC(=O)[C@H](N)Cc2ccccc2)CSSC1(C)C)C(N)=O` [listing 2 of 2 here] was tested, and the IC50 (Mus musculus [10]) was “Not Active”, the IC50 (Mu-type opioid receptor) was 49 nM and the IC50 [9] was 20000 nM.
